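The compound was tested at five concentrations on cells cultured in 96-well plates, with a 48-hour exposure period. Abbreviation: GI50, concentration required for 50% inhibition of growth. The concentration for full growth arrest is given as TGI.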
How the values were obtained:
Assay in all cases: NCI tumour cell line growth inhibition, 48 h
[1] = test system: SF-295 CNS
[2] = test system: LOX IMVI melanoma
[3] = test system: SK-MEL-28 melanoma
[4] = test system: MCF7 breast
[5] = test system: SR leukemia
[6] = test system: HS 578T breast
[7] = test system: A498 renal
[8] = test system: ACHN renal
[9] = test system: UO-31 renal
[10] = test system: M14 melanoma
[11] = test system: NCI/ADR-RES ovarian
[12] = test system: MDA-MB-231 breast
[13] = test system: CAKI-1 renal
[14] = test system: HT29 colon
[15] = test system: RXF 393 renal
[16] = test system: SN12C renal
[17] = test system: SK-MEL-2 melanoma
[18] = test system: T-47D breast
[19] = test system: SK-MEL-5 melanoma
[20] = test system: MDA-MB-435
[21] = test system: SF-539 CNS
[22] = test system: EKVX NSCLC
[23] = test system: UACC-257 melanoma
[24] = test system: PC-3 prostate
[25] = test system: RPMI-8226 leukemia
[26] = test system: HCT-15 colon
[27] = test system: TK-10 renal
[28] = test system: NCI-H460 lung
[29] = test system: SNB-75 CNS
[30] = test system: SW-620 colon
[31] = test system: A549 NSCLC
[32] = test system: 786-0 renal
[33] = test system: HCT-116 colon
[34] = test system: CCRF-CEM leukemia
[35] = test system: SK-OV-3 ovarian
[36] = test system: MALME-3M melanoma
[37] = test system: IGROV1 ovarian
[38] = test system: SNB-19 CNS
[39] = test system: MOLT-4 leukemia
[40] = test system: HOP-62 NSCLC
[41] = test system: OVCAR-3 ovarian
[42] = test system: U251 CNS
[43] = test system: NCI-H226 lung
[44] = test system: BT-549 breast
[45] = test system: NCI-H522 lung
[46] = test system: NCI-H23 lung
[47] = test system: COLO 205 colon
[48] = test system: HL-60(TB) leukemia
[49] = test system: DU-145 prostate
[50] = test system: OVCAR-4 ovarian
[51] = test system: SF-268 CNS
[52] = test system: OVCAR-5 ovarian
[53] = test system: UACC-62 melanoma
[54] = test system: K-562 leukemia
[55] = test system: HOP-92 NSCLC
[56] = test system: OVCAR-8 ovarian
[57] = test system: HCC-2998 colon
[58] = test system: KM12 colon

## Cc1cc(O)c(C2=NN(c3ccc(S(N)(=O)=O)cc3)C(/C=C/c3ccccc3)C2)cc1Cl (stereo unspecified)
[1]
  GI50: 2.36 µM
  TGI: 11.9 µM
[2]
  GI50: 3.94 µM
  TGI: 16.2 µM
[3]
  GI50: 10.9 µM
  TGI: 23.8 µM
[4]
  GI50: 3.93 µM
  TGI: 16.1 µM
[5]
  GI50: 12.7 µM
  TGI: 33.8 µM
[6]
  GI50: 12.3 µM
  TGI: 49.7 µM
[7]
  GI50: 14.9 µM
  TGI: 42.4 µM
[8]
  GI50: 5.27 µM
  TGI: 21.9 µM
[9]
  GI50: 15.2 µM
  TGI: 34.9 µM
[10]
  GI50: 6.16 µM
  TGI: 19.3 µM
[11]
  GI50: 9.26 µM
  TGI: 22.7 µM
[12]
  GI50: 4.56 µM
  TGI: 16.3 µM
[13]
  GI50: 15.3 µM
  TGI: 87.7 µM
[14]
  GI50: 3.73 µM
  TGI: 14.7 µM
[15]
  GI50: 6.69 µM
  TGI: 20.2 µM
[16]
  GI50: 11.1 µM
  TGI: 25.6 µM
[17]
  GI50: 16.8 µM
  TGI: 58.2 µM
[18]
  GI50: 3.38 µM
  TGI: 14.7 µM
[19]
  GI50: 4.23 µM
  TGI: 16.4 µM
[20]
  GI50: 8.87 µM
  TGI: 24 µM
[21]
  GI50: 2.98 µM
  TGI: 14 µM
[22]
  GI50: 14.2 µM
  TGI: 35.3 µM
[23]
  GI50: 14.5 µM
  TGI: 45.7 µM
[24]
  GI50: 3.15 µM
  TGI: 11.5 µM
[25]
  GI50: 4.95 µM
  TGI: 20.6 µM
[26]
  GI50: 18.9 µM
  TGI: > 100 µM
[27]
  GI50: 14.8 µM
  TGI: 29.9 µM
[28]
  GI50: 4.03 µM
  TGI: 17 µM
[29]
  GI50: 3.39 µM
  TGI: 16.1 µM
[30]
  GI50: 11.7 µM
  TGI: 31.3 µM
[31]
  GI50: 11 µM
  TGI: 30.8 µM
[32]
  GI50: 4.09 µM
  TGI: 12.5 µM
[33]
  GI50: 2.4 µM
  TGI: 14.6 µM
[34]
  GI50: 17.7 µM
  TGI: 50 µM
[35]
  GI50: 5.52 µM
  TGI: 17.9 µM
[36]
  GI50: 3.01 µM
  TGI: 17.4 µM
[37]
  GI50: 4.32 µM
  TGI: 19.8 µM
[38]
  GI50: 7.84 µM
  TGI: 19.9 µM
[39]
  GI50: 17.7 µM
  TGI: 73.7 µM
[40]
  GI50: 3.94 µM
  TGI: 14.1 µM
[41]
  GI50: 11.5 µM
  TGI: 28.4 µM
[42]
  GI50: 3.79 µM
  TGI: 15.6 µM
[43]
  GI50: 5.21 µM
  TGI: 19.2 µM
[44]
  GI50: 6.12 µM
  TGI: 21.3 µM
[45]
  GI50: 4.62 µM
  TGI: 19.4 µM
[46]
  GI50: 1.68 µM
  TGI: 12.5 µM
[47]
  GI50: 10.4 µM
  TGI: 22.1 µM
[48]
  GI50: 68.3 µM
  TGI: > 100 µM
[49]
  GI50: 14.1 µM
  TGI: 38.6 µM
[50]
  GI50: 3.74 µM
  TGI: 18.9 µM
[51]
  GI50: 5.63 µM
  TGI: 19.5 µM
[52]
  GI50: 3.18 µM
  TGI: 14.7 µM
[53]
  GI50: 2.89 µM
  TGI: 11.4 µM
[54]
  GI50: 11.6 µM
  TGI: 87.5 µM
[55]
  GI50: 2.36 µM
  TGI: 8.48 µM
[56]
  GI50: 3.03 µM
  TGI: 20.2 µM
[57]
  GI50: 9.89 µM
  TGI: 30.3 µM
[58]
  GI50: 11.7 µM
  TGI: 34.8 µM

Reference: PubChem BioAssay (NCI)
